Data set [1] relates to release of soluble CD23 from RPMI 8866 cell plasma membranes. The experiment in a line: RPMI 8866 cell membrane CD23 cleavage activity assay. The class given is biochemical, human. The note with it: RPMI 8866 membranes, 37° C., sCD23 by EIA; read-out: IC50 (50% inhibition of production of sCD23). As for the experimental part: Procedure 1: The ability of test compounds to inhibit the release of soluble CD23 was investigated by use of the following procedure.
RPMI 8866 Cell Membrane CD23 Cleavage Activity Assay
Plasma membranes from RPMI 8866 cells, a human Epstein-Barr virus transformed B-cell line (Sarfati et al., Immunology 60 [1987] 539-547) expressing high levels of CD23 are purified using an aqueous extraction method. Cells resuspended in homogenization buffer (20 mM HEPES pH 7.4, 150 mM NaCl, 1.5 mM MgCl2, 1 mM DTT) are broken by N2 cavitation in a Parr bomb and the plasma membrane fraction mixed with other membranes is recovered by centrifugation at 10,000×g. […]
The fractionated membranes are incubated at 37° C. for times up to 4 hrs to produce fragments of CD23 which are separated from the membrane by filtration in 0.2 micron Durapore filter plates (Millipore) after quenching the assay with 5 uM Preparation 1 from P 30994. sCD23 released from the membrane is determined using the EIA kit from The Binding Site (Birmingham, UK) or a similar one utilizing MHM6 anti-CD23 mAb [Rowe et al., Int. […] The amount of soluble CD23 made by 0.5 ug membrane protein in a total volume of 50 ul phosphate-buffered saline is measured by EIA and compared to the amount made in the presence of various concentrations of inhibitors. […]

Data set [2] is described as follows: i.v. pharmacokinetic parameters and oral bioavailability in male Cynomolgus monkeys. It is filed as in vivo. As for the experimental part: (§1) Procedure 4: The bioavailability of test compounds was investigated using the following bio-equivalence studies.
A Study to Estimate the i.v. Pharmacokinetic Parameters and Oral Bioavailability in Male Cynomolgus Monkeys
This study was conducted using a crossover design on two separate studv days, seven days apart. Three male Cynomolgus monkeys were used for this study. On both study days, a catheter was placed in a saphenous vein for collection of blood samples. On study day one, a catheter also was temporarily placed in a contralateral saphenous vein for i.v. infusion.
On study day one, each animal (fasted) received test compound (2.0 umol/kg target dose) as a 1-h intravenous infusion (4.0 mL/kg). The dose solution was prepared in 20% aqueous Encapsin® (pH=8.0) and contained 1% DMSO. Encapsin® (Cerestar USA Inc., Hammond, Ind.) is hydroxypropyl-beta-cyclodextrin, a cyclic oligosaccharide (7 glucose units) used to enhance solubility in the preparation of dose solutions that otherwise would require formulation using non-aqueous solvents.
On study day two, each animal (fasted) received test compound (6.0 umol/kg target dose) by oral gavage (8.0 mL/kg). The dose solution was prepared in 5% aqueous succinated porcine gelatin (pH=8.0) and contained 1% DMSO.
Blood samples were obtained from the femoral vein catheter; plasma was isolated by centrifugation. Plasma concentrations of test compound were quantified by LC/MS/MS (LLQ=10 ng/mL). Noncompartmental methods were used for pharmacokinetic analysis of plasma concentration versus time data.

Data set [3] can be described thus: i.v. pharmacokinetic parameters and oral bioavailability in male Beagle dogs. The note with it: Dog. It is filed as in vivo. How it is done: as §1
A Study to Estimate the i.v. Pharmacokinetic Parameters and Oral Bioavailability in Male Beagle Dogs
This study was conducted using a crossover design on two separate study days, seven days apart. Three male Beagle dogs were used in this study. On each study day, a catheter was temporarily placed in a cephalic vein for blood sampling; on study day one only, a catheter was also temporarily placed in a saphenous vein for i.v. infusion.
On study day one, each animal received test compound (2.0 umol/kg target dose) as a 1-h intravenous infusion (4.0 mL/kg). The dose solution was prepared in 20% aqueous Encapsin® (pH=8.0) and contained 1% DMSO. Encapsin® (Cerestar USA Inc., Hammond, Ind.) is hydroxypropyl-beta-cyclodextrin, a cyclic oligosaccharide (7 glucose units) used to enhance solubility in the preparation of dose solutions that otherwise would require formulation using non-aqueous solvents.
On study day two, each animal received test compound (6.0 umol/kg target dose ) by oral gavage (8.0 mL/kg). The dose solution was prepared in 5% aqueous succinated porcine gelatin (pH=7.5) and contained 1% DMSO.
Plasma concentrations of test compound were quantified by LC/MSIMS (LLQ=10 ng/mL). Noncompartmental methods were used for analysis of plasma concentration versus time data.

The test system of data set [4] is TNFα release from human monocytes. The experiment in a line: Inhibition of release of TNFα from human monocytes stimulated by LPS. It is filed as cell-based. The note with it: at 10 uM; LPS 200 ng/ml, 18-20 hrs. How it is done: Procedure 3: The ability of test compounds to inhibit TNF release was investigated using the following procedure.
Assay for Inhibition of Release of TNFα From Human Monocytes Stimulated by Lipopolysaccharide (LPS) Endotoxin
Human monocytes, cultured in RPMI 1640 medium supplemented with 10% fetal calf serum, are centrifuged at 1000×g for 5 min and then resuspended in medium at 2×10^6 cells/ml. The cell suspension is aliquoted in 24 well plates, 1 ml per well. Compounds to be tested are dissolved in neat dimethyl sulfoxide (DMSO) and added to culture with the final DMSO concentration at 0.1%. Compounds are added to cells in triplicate wells. TNF α release is stimulated by addition of LPS to the cells at a final concentration of 200 ng/ml. Appropriate control cultures are set up in triplicates also. The plates are incubated for 18-20 hrs at 37° C., 5% CO2, then centrifuged at 1000×g for 5 min. A specific ELISA for human TNFα (SmithKline Beecham) is used to measure TNF levels in the cell-free culture supernatants.

The nature of data set [5]: i.v. pharmacokinetic parameters and oral bioavailability in male Sprague Dawley rat. The class given is in vivo. The note with it: for half-life: rat, 2 mg/kg, two-compartment model. How it is done: as §1
A Study to Estimate the i.v. Pharmacokinetic Parameters and Oral Bioavailability in Male Sprague Dawley Rat
This study was carried out using a crossover design on four separate study days. Three rats received surgically-implanted femoral vein catheters for infusion of test molecules at least three days prior to the start of the study. All doses in this study were prepared using crystalline test compound.
On study day one, the animals (fed) received test compound as a 30-min intravenous infusion at a target dosage of 4.0 umol/kg (4.0 mL/kg). The dose solution was prepared in 20% aqueous Encapsin® (pH=8.0) and contained 1% DMSO. Encapsin® (Cerestar USA Inc., Hammond, Ind.) is hydroxypropyl-beta-cyclodextrin, a cyclic oligosaccharide used to enhance solubility of compounds that otherwise would require formulation using non-aqueous solvents.
On study day two, the animals (fasted) received test compound as a solution at a target dosage of 8 umol/kg by oral gavage (16 mL/kg). The dose solution was prepared in 5% aqueous succinated porcine gelatin (pH=7.5) and contained 1% DMSO. Blood samples were collected from a lateral tail vein. A 25-uL aliquot of each whole blood sample was added to 25 uL of water and allowed to stand on ice for approximately 5 min to facilitate complete hemolysis; samples then were stored frozen until analvsis. Blood concentrations of test compound were quantified by LC/MS/MS (LLQ=10.0 ng/mL). […] Various compartmental models and weighting paradigms were employed; a two-compartment model with first-order elimination from the central compartment and iterative least squares weighting with a weight of 1/Y^2 provided the best fit to the observed data, according to standard model selection criteria (i.e., Akaike's Information Criterion, Schwartz Criterion, and sum of squared residuals). Pharmacokinetic parameters were calculated using the best-fit compartmental model; all calculations that required the use of AUC values (including bioavailability) were performed using the AUC recovered from noncompartmental analysis.

Setting [6] is: Monkey, iv dose = 0.92 mg/kg, individual values, 0.92 mg/kg.
Where [7] appears, read: male, Beagle, plasma, iv dose = 0.96 mg/kg.
Setting [8] is: male, Sprague Dawley, whole blood, iv, i.v. dose = 2.0 mg/kg.

Structures are written as SMILES. Values joined by “and” are separate entries in the source; they are usually repeats but may differ in a detail not shown here. Identical values can stand only once. Like-named read-outs stand apart in the source and are kept apart here.

Take `CNC(=O)[C@@H](NC(=O)[C@H](Cc1ccc2ccccc2c1)[C@H](OC(C)C)C(=O)NO)C(C)(C)C` [N′-[4-(N-hydroxyamino)-3S-isopropoxy-2R-(2-naphthylmethyl)succinyl]-S-tert-leucine methylamide]: the IC50 – broadly, the point on the concentration scale where inhibition reaches its midpoint – in data set [1] turned out to be 60 nM. Also, the “Oral F” value in data set [2] (Monkey, fasted, oral gavage 2.8 mg/kg Solution vs iv 0.92 mg/kg, individual values) is 21.1% and 6.0% and 22.5%; in data set [3] (oral gavage, po dose = 2.7 mg/kg vs iv 0.96 mg/kg) it was 29.0 ± 3.7%; in data set [5] (fasted, oral gavage 3.7 mg/kg solution vs i.v. 2.0 mg/kg), 50.6 ± 10.6%. For the same compound, the MRT (commonly the average time that molecules of a dose stay in the body) in data set [2] (setting [6]) was 5.18 h and 0.992 h and 1.14 h; in data set [3] (setting [7]) it was 1.07 h; in data set [5] (setting [8]), 2.13 h. Besides, the T1/2 was 11.5 h and 1.42 h and 3.47 h in data set [2] (setting [6]); 4.2 h and 4.32 h and 0.817 h in data set [3] (iv dose = 0.96 mg/kg, individual values, 0.96 mg/kg). Moreover, in data set [2] (setting [6]), the Vdss is 4.09 L/kg and 1.11 L/kg and 0.827 L/kg. For the same compound, the Cmax (usually the peak of the concentration-time curve) in data set [2] (male, cynomolgus monkey, 1-h i.v. infusion, iv dose = 0.92 mg/kg, plasma) turned out to be 1010 ± 175 ng/mL; in data set [3] (male, Beagle, 1-h i.v. infusion, iv dose = 0.96 mg/kg, plasma) it was 1410 ± 465 ng/mL; in data set [5] (male, Sprague Dawley, whole blood, iv, 30-min i.v. infusion, i.v. dose = 2.0 mg/kg, blood), 1340 ± 296 ng/mL. Moreover, the clearance in data set [2] (male, cynomolgus monkey, plasma, iv dose = 0.92 mg/kg) worked out at 14.7 ± 3.6 mL/min/kg; in data set [3] (setting [7]), 10.6 ± 4.5 mL/min/kg; in data set [5] (setting [8]), 26.4 ± 8.5 mL/min/kg. For the same compound, the Vd in data set [3] (male, Beagle, plasma, iv dose = 0.96 mg/kg, read-out: Vdss) was determined as 0.563 ± 0.204 L/kg; in data set [5] (male, Sprague Dawley, whole blood, iv, i.v. dose = 2.0 mg/kg, read-out: Vdss), 3.25 ± 1.7 L/kg. For the same compound, in data set [4], the “effect on TNF release” value is reported as “no effect”. Moreover, the half-life was 0.18 ± 0.0883 h in data set [5] (male, Sprague Dawley, whole blood, iv, i.v. dose = 2.0 mg/kg, read-out: T1/2 (α)) and 3.9 ± 2.32 h in data set [5] (male, Sprague Dawley, whole blood, iv, i.v. dose = 2.0 mg/kg, read-out: T1/2 (β)).

The record behind these values is patent US6673965B1, “Hydroxamic acid derivative as inhibitor of the formation of soluble human CD23” (SmithKline Beecham P.L.C., priority 1999, dated 2004).
